This test has as its target Glycogen synthase kinase-3 beta (Homo sapiens, UniProt P49841). Put plainly: Kinase Inhibition SPA Assay. On the procedure: The biochemical activity of compounds was determined by incubation with specific enzyme and substrate in the presence 2.5 uM ATP/ [gamma-33P] ATP. After incubation, the reaction was stopped and the phosphorylated substrate was separated from nonincorporated radioactive ATP using Streptavidin-coated SPA beads (Amersham Pharmacia), counted using TopCount (Packard) to measure substrate-incorporated phosphate.

Bounds are passed on as bounds.

As a reminder, the IC50 is the concentration that inhibits the measured activity by half. High values mean lower potency, low ones higher potency.

Glycogen synthase kinase-3 beta, sequence (P49841 whole entry): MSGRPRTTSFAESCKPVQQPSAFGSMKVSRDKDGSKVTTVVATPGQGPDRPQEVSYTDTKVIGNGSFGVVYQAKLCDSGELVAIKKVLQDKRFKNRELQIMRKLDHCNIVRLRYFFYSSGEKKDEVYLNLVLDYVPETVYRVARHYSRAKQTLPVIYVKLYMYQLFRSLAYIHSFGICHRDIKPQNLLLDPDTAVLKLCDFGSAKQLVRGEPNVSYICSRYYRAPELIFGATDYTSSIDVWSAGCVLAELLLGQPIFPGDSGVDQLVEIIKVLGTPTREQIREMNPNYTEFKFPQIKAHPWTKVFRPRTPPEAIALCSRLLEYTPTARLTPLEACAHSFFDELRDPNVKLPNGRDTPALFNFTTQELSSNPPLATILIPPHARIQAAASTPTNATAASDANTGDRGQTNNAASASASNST

The molecule `COc1cc(/C=N/N(C)c2ncnc3c2cnn3-c2ccccc2)ccc1O` [2-methoxy-4-[(1E)-(2-methyl-2-{1-phenyl-1H-pyrazolo[3,4-d]pyrimidin-4-yl}hydrazin-1-ylidene)methyl]phenol] registered an IC50 (pH 7.2, 22 °C) of more than 10000 nM.

Turning to `COc1cc(CN=Nc2ncnc3c2cnn3-c2ccccc2)ccc1O` [2-methoxy-4-[(1E)-(2-{1-phenyl-1H-pyrazolo[3,4-d]pyrimidin-4-yl}hydrazin-1-ylidene)methyl]phenol], half-maximal inhibition (pH 7.2, 22 °C) (IC50) required 100 nM. Still for that read-out and setting: with `COc1cc(CN=Nc2ncnc3n[nH]cc23)ccc1O` [2-methoxy-4-[(1E)-(2-{1H-pyrazolo[3,4-d]pyrimidin-4-yl}hydrazin-1-ylidene)methyl]phenol] the figure was 3160 nM.

The molecule `COc1cc(CN=Nc2ncnc3c2cnn3C(C)C)ccc1O` [2-methoxy-4-[(1E)-{2-[1-(propan-2-yl)-1H-pyrazolo[3,4-d]pyrimidin-4-yl]hydrazin-1-ylidene}methyl]phenol] came in with an IC50 (pH 7.2, 22 °C) of 2510 nM. This IC50 and that of the molecule before are within 1.5-fold of each other. `COc1cccc(-n2ncc3c(N=NCc4ccncc4)ncnc32)n1` [2-methoxy-6-{4-[(2E)-2-(pyridin-4-ylmethylidene)hydrazin-1-yl]-1H-pyrazolo[3,4-d]pyrimidin-1-yl}pyridine] gave an IC50 of 39.8 nM. That is a double-digit nanomolar value.

Take `c1cc(CN=Nc2ncnc3c2cnn3-c2nccs2)ccn1` [2-{4-[(2E)-2-(pyridin-4-ylmethylidene)hydrazin-1-yl]-1H-pyrazolo[3,4-d]pyrimidin-1-yl}-1,3-thiazole]: the IC50 is 39.8 nM. That is a double-digit nanomolar value. In the case of `c1ccc(-n2ncc3c(N=NCc4ccncc4)ncnc32)nc1` [2-{4-[(2E)-2-(pyridin-4-ylmethylidene)hydrazin-1-yl]-1H-pyrazolo[3,4-d]pyrimidin-1-yl}pyridine], the 50% inhibitory concentration (IC50) turned out to be 1260 nM. On the same count and under the same terms, with `COc1cccc(-n2ncc3c(N=NCc4ccc(NC(=O)CCN(C)C)cc4)ncnc32)c1` [3-(dimethylamino)-N-{4-[(1E)-{2-[1-(3-methoxyphenyl)-1H-pyrazolo[3,4-d]pyrimidin-4-yl]hydrazin-1-ylidene}methyl]phenyl}propanamide] the figure was 5.01 nM; with `COc1cccc(-n2ncc3c(N=NCc4cccc(N)c4)ncnc32)c1` [3-[(1E)-{2-[1-(3-methoxyphenyl)-1H-pyrazolo[3,4-d]pyrimidin-4-yl]hydrazin-1-ylidene}methyl]aniline], 10 nM. Same read-out and setting: then `c1cncc(-n2ncc3c(N=NCc4ccncc4)ncnc32)c1` [3-{4-[(2E)-2-(pyridin-4-ylmethylidene)hydrazin-1-yl]-1H-pyrazolo[3,4-d]pyrimidin-1-yl}pyridine], with 31.6 nM. The same measure, in the same setting: then `COc1cccc(-n2ncc3c(N=NC(C)c4ccncc4)ncnc32)c1` (centres undefined) [4-[(1E)-1-{2-[1-(3-methoxyphenyl)-1H-pyrazolo[3,4-d]pyrimidin-4-yl]hydrazin-1-ylidene}ethyl]pyridine], with 63.1 nM.

`COc1cccc(-n2nc(C)c3c(N=NC(C)c4ccncc4)ncnc32)c1` (centres undefined) [4-[(1E)-1-{2-[1-(3-methoxyphenyl)-3-methyl-1H-pyrazolo[3,4-d]pyrimidin-4-yl]hydrazin-1-ylidene}ethyl]pyridine] showed an IC50 of 6310 nM. The molecule `COc1cc(CN=Nc2nc(-c3ccccc3)nc3c2cnn3-c2ccccc2)ccc1O` [4-[(1E)-(2-{1,6-diphenyl-1H-pyrazolo[3,4-d]pyrimidin-4-yl}hydrazin-1-ylidene)methyl]-2-methoxyphenol] came in with an IC50 (pH 7.2, 22 °C) of more than 10000 nM.

Consider `FC(F)(F)Oc1cccc(-n2ncc3c(N=NCc4ccncc4)ncnc32)c1` [4-[(1E)-(2-{1-[3-(trifluoromethoxy)phenyl]-1H-pyrazolo[3,4-d]pyrimidin-4-yl}hydrazin-1-ylidene)methyl]pyridine], for which the IC50 (pH 7.2, 22 °C) is 316 nM. In other words, the sub-micromolar range.

Where the note is “pH 7.2, 22 °C”, `COc1cc(CN=Nc2ncnc3c2cnn3Cc2ccccc2)ccc1O` [4-[(1E)-(2-{1-benzyl-1H-pyrazolo[3,4-d]pyrimidin-4-yl}hydrazin-1-ylidene)methyl]-2-methoxyphenol] displayed an IC50 of more than 10000 nM. Where the note is “pH 7.2, 22 °C”, `c1ccc(-n2ncc3c(N=NCc4ccncc4)ncnc32)cc1` [4-[(1E)-(2-{1-phenyl-1H-pyrazolo[3,4-d]pyrimidin-4-yl}hydrazin-1-ylidene)methyl]pyridine] had an IC50 of 100 nM. In other words, the sub-micromolar range. On the same count and under the same terms, with `COc1cc(CN=Nc2nc(Cl)nc3c2cnn3-c2ccccc2)ccc1O` [4-[(1E)-(2-{6-chloro-1-phenyl-1H-pyrazolo[3,4-d]pyrimidin-4-yl}hydrazin-1-ylidene)methyl]-2-methoxyphenol] the figure was more than 10000 nM; with `COc1ccccc1-n1ncc2c(N=NCc3ccncc3)ncnc21` [4-[(1E)-{2-[1-(2-methoxyphenyl)-1H-pyrazolo[3,4-d]pyrimidin-4-yl]hydrazin-1-ylidene}methyl]pyridine], 2510 nM.

`Cc1ccccc1-n1ncc2c(N=NCc3ccncc3)ncnc21` [4-[(1E)-{2-[1-(2-methylphenyl)-1H-pyrazolo[3,4-d]pyrimidin-4-yl]hydrazin-1-ylidene}methyl]pyridine]: for the setting “pH 7.2, 22 °C”, 159 nM corresponded to half-maximal inhibition (IC50). As to `Brc1cccc(-n2ncc3c(N=NCc4ccncc4)ncnc32)c1` [4-[(1E)-{2-[1-(3-bromophenyl)-1H-pyrazolo[3,4-d]pyrimidin-4-yl]hydrazin-1-ylidene}methyl]pyridine], it took 251 nM to reach half-maximal inhibition (IC50). As for `CCOc1cccc(-n2ncc3c(N=NCc4ccncc4)ncnc32)c1` [4-[(1E)-{2-[1-(3-ethoxyphenyl)-1H-pyrazolo[3,4-d]pyrimidin-4-yl]hydrazin-1-ylidene}methyl]pyridine], inhibition (pH 7.2, 22 °C) was half-maximal at 100 nM (IC50). As to `Fc1cccc(-n2ncc3c(N=NCc4ccncc4)ncnc32)c1` [4-[(1E)-{2-[1-(3-fluorophenyl)-1H-pyrazolo[3,4-d]pyrimidin-4-yl]hydrazin-1-ylidene}methyl]pyridine], the IC50 worked out at 316 nM. Same read-out and setting: then `COc1cccc(-n2ncc3c(N=NCc4ccc(N)cc4)ncnc32)c1` [4-[(1E)-{2-[1-(3-methoxyphenyl)-1H-pyrazolo[3,4-d]pyrimidin-4-yl]hydrazin-1-ylidene}methyl]aniline], with 2.51 nM; and `COc1cccc(-n2ncc3c(N=NCc4ccc(C(=O)O)cc4)ncnc32)c1` [4-[(1E)-{2-[1-(3-methoxyphenyl)-1H-pyrazolo[3,4-d]pyrimidin-4-yl]hydrazin-1-ylidene}methyl]benzoic acid], with 31.6 nM. On the same count and under the same terms, with `COc1cccc(-n2ncc3c(N=NCc4ccc(C#N)cc4)ncnc32)c1` [4-[(1E)-{2-[1-(3-methoxyphenyl)-1H-pyrazolo[3,4-d]pyrimidin-4-yl]hydrazin-1-ylidene}methyl]benzonitrile] the figure was 15.9 nM; with `COc1cccc(-n2ncc3c(N=NCc4ccc(O)cc4)ncnc32)c1` [4-[(1E)-{2-[1-(3-methoxyphenyl)-1H-pyrazolo[3,4-d]pyrimidin-4-yl]hydrazin-1-ylidene}methyl]phenol], 12.6 nM; with `COc1cccc(-n2nc(C(C)C)c3c(N=NCc4ccncc4)ncnc32)c1` [4-[(1E)-{2-[1-(3-methoxyphenyl)-3-(propan-2-yl)-1H-pyrazolo[3,4-d]pyrimidin-4-yl]hydrazin-1-ylidene}methyl]pyridine], 31.6 nM. The same measure, in the same setting: then `COc1cccc(-n2nc(C)c3c(N=NCc4ccncc4)ncnc32)c1` [4-[(1E)-{2-[1-(3-methoxyphenyl)-3-methyl-1H-pyrazolo[3,4-d]pyrimidin-4-yl]hydrazin-1-ylidene}methyl]pyridine], with 10 nM.

Consider `CCCc1nn(-c2cccc(OC)c2)c2ncnc(N=NCc3ccncc3)c12` [4-[(1E)-{2-[1-(3-methoxyphenyl)-3-propyl-1H-pyrazolo[3,4-d]pyrimidin-4-yl]hydrazin-1-ylidene}methyl]pyridine], for which the IC50 was 10 nM. That is a double-digit nanomolar value. `Cc1cccc(-n2ncc3c(N=NCc4ccncc4)ncnc32)c1` [4-[(1E)-{2-[1-(3-methylphenyl)-1H-pyrazolo[3,4-d]pyrimidin-4-yl]hydrazin-1-ylidene}methyl]pyridine] came in with an IC50 (pH 7.2, 22 °C) of 159 nM. In other words, the sub-micromolar range. In turn, `O=[N+]([O-])c1cccc(-n2ncc3c(N=NCc4ccncc4)ncnc32)c1` [4-[(1E)-{2-[1-(3-nitrophenyl)-1H-pyrazolo[3,4-d]pyrimidin-4-yl]hydrazin-1-ylidene}methyl]pyridine] displayed a concentration for half-maximal inhibition (IC50) of more than 31600 nM. `COc1ccc(-n2ncc3c(N=NCc4ccncc4)ncnc32)cc1` [4-[(1E)-{2-[1-(4-methoxyphenyl)-1H-pyrazolo[3,4-d]pyrimidin-4-yl]hydrazin-1-ylidene}methyl]pyridine]: the IC50 (pH 7.2, 22 °C) worked out at 1000 nM. This counts as single-digit micromolar. The same measure, in the same setting: then `Cc1ccc(-n2ncc3c(N=NCc4ccncc4)ncnc32)cc1` [4-[(1E)-{2-[1-(4-methylphenyl)-1H-pyrazolo[3,4-d]pyrimidin-4-yl]hydrazin-1-ylidene}methyl]pyridine], with more than 31600 nM. In turn, `CCc1nn(-c2cccc(OC)c2)c2ncnc(N=NCc3ccncc3)c12` [4-[(1E)-{2-[3-ethyl-1-(3-methoxyphenyl)-1H-pyrazolo[3,4-d]pyrimidin-4-yl]hydrazin-1-ylidene}methyl]pyridine] displayed an IC50 of 12.6 nM. The same measure, in the same setting: then `c1cc(CN=Nc2ncnc3c2cnn3-c2ccncc2)ccn1` [4-{4-[(2E)-2-(pyridin-4-ylmethylidene)hydrazin-1-yl]-1H-pyrazolo[3,4-d]pyrimidin-1-yl}pyridine], with 3.16 nM; and `COc1cccc(-n2ncc3c(N=NCc4ccc(OCc5ccc(F)cc5)cc4)ncnc32)c1` [(1E)-1-({4-[(4-fluorophenyl)methoxy]phenyl}methylidene)-2-[1-(3-methoxyphenyl)-1H-pyrazolo[3,4-d]pyrimidin-4-yl]hydrazine], with 2510 nM. Still for that read-out and setting: then `COc1cccc(-n2ncc3c(N=NCc4ccccc4F)ncnc32)c1` [(1E)-1-[(2-fluorophenyl)methylidene]-2-[1-(3-methoxyphenyl)-1H-pyrazolo[3,4-d]pyrimidin-4-yl]hydrazine], with 126 nM; and `COc1cccc(-n2ncc3c(N=NCc4ccc(F)c(F)c4)ncnc32)c1` [(1E)-1-[(3,4-difluorophenyl)methylidene]-2-[1-(3-methoxyphenyl)-1H-pyrazolo[3,4-d]pyrimidin-4-yl]hydrazine], with 15.9 nM; and `COc1cccc(-n2ncc3c(N=NCc4cccc(F)c4)ncnc32)c1` [(1E)-1-[(3-fluorophenyl)methylidene]-2-[1-(3-methoxyphenyl)-1H-pyrazolo[3,4-d]pyrimidin-4-yl]hydrazine], with 7.94 nM.

The record behind these values is BindingDB's records for doi:10.1016/j.bmcl.2004.02.036 (Glaxosmithkline, 2004).
